Test results taken from ChEMBL document CHEMBL1817632, “Synthesis and cytotoxic activity of the heptaphylline and 7-methoxyheptaphylline series” (Eur J Med Chem, 2011).
Active and inactive are the calls of the source. The calls are words filed in the database; no cut-off is given here.

How the values were obtained:
[1] = system: KB; assay: Cytotoxicity against human KB cells after 3 days by resazurin microplate assay; format: functional, cell-based; conditions: 72 h
[2] = system: NCI-H187; assay: Cytotoxicity against human NCI-H187 cells after 5 days by resazurin microplate assay; format: functional, cell-based; conditions: NCI-H187, 120 h
[3] = system: Vero; assay: Cytotoxicity against african green monkey Vero cells expressing green fluorescent protein after 4 days by fluorescence analysis; format: cell-based; conditions: chlorocebus sabaeus, 96 h
[4] = system: Vero; assay: Cytotoxicity against african green monkey Vero cells expressing green fluorescent protein at > 200 uM after 4 days by fluorescence analysis; format: cell-based; conditions: chlorocebus sabaeus, 96 h
[5] = system: KB; assay: Ratio of Ellipticine IC50 to compound IC50 for human KB cells; format: functional
[6] = system: NCI-H187; assay: Ratio of Ellipticine IC50 to compound IC50 for human NCI-H187 cells; format: functional
[7] = system: NCI-H187; assay: Cytotoxicity against human NCI-H187 cells at >200 uM after 5 days by resazurin microplate assay; format: functional, cell-based
[8] = system: KB; assay: Cytotoxicity against human KB cells at >200 uM after 3 days by resazurin microplate assay; format: functional, cell-based

| SMILES | IC50 [1] [µM] | IC50 [2] [µM] | IC50 [3] [µM] | Activity [4] | Ratio IC50 [5] | Ratio IC50 [6] | Activity [7] | Activity [8] |
| --- | --- | --- | --- | --- | --- | --- | --- | --- |
| CC(C)=CCc1c(O)c(C=O)cc2c3ccccc3n(C)c12 | 166 | 44.2 | 34.6 | – | – | – | – | – |
| CC(C)(O)C(Br)Cc1c(O)c(C=O)cc2c1[nH]c1ccccc12 (stereo not given) | 17.4 | 30.2 | – | Non-toxic | – | – | – | – |
| CC1(C)OC1Cc1c(O)c(C=O)cc2c1[nH]c1ccccc12 (stereo not given) | 54.8 | 5.31 | 74.5 | – | – | – | – | – |
| COc1c(C=O)cc2c([nH]c3ccccc32)c1CC=C(C)C | 12.8 | 4.49 | 170 | – | – | – | – | – |
| CC(C)=CCc1c(O)c(/C=N\O)cc2c1[nH]c1ccccc12 [HEPTAPHYLLINE OXIME] | 0.17 | 0.02 | 66 | – | 10 | 138 | – | – |
| COc1ccc2c3cc(C=O)c(OC)c(CC=C(C)C)c3n(C)c2c1 | 69.8 | 4.83 | 45.9 | – | – | – | – | – |
| CC1(C)Oc2c(C=O)cc3c([nH]c4ccccc43)c2CC1O (stereo not given) | 5.99 | 6.06 | – | Non-toxic | – | – | – | – |
| COc1cc2[nH]c3c4c(c(C=O)cc3c2cc1Br)OC(C)(C)C(Br)C4 (stereo not given) | – | – | – | Non-toxic | – | – | inactive | inactive |
| CC1(C)Oc2c(C=O)cc3c([nH]c4ccccc43)c2CC1Br (stereo not given) | 6 | 77.4 | – | Non-toxic | – | – | – | – |
| COc1ccc2c(c1)[nH]c1c(CC3OC3(C)C)c(O)c(C=O)cc12 (stereo not given) | 9.22 | 20.1 | 75.3 | – | – | – | – | – |
| COc1ccc2c(c1)[nH]c1c(CC=C(C)C)c(OC)c(C=O)cc12 | 11 | 19.5 | 61.1 | – | – | – | – | – |
| COc1ccc2c(c1)[nH]c1c(CC=C(C)C)c(O)c(C=O)cc12 | – | – | – | Non-toxic | – | – | – | – |
| CC1(C)CCc2c(c(C=O)cc3c2[nH]c2ccccc23)O1 | 26.4 | 65.2 | – | Non-toxic | – | – | – | – |
| COc1ccc2c(c1)[nH]c1c3c(c(C=O)cc12)OC(C)(C)C(O)C3 (stereo not given) | 120 | 3.04 | – | Non-toxic | – | – | – | – |
| Cc1c2ccncc2c(C)c2c1[nH]c1ccccc12 [ELLIPTECINE] | – | 2.77 | 3.82 | – | – | – | – | – |
| COc1ccc2c(c1)[nH]c1c3c(c(C=O)cc12)OC(C(C)(C)O)C3 (stereo not given) | 71.2 | 12.9 | – | Non-toxic | – | – | – | – |
| COc1ccc2c(c1)[nH]c1c(CC=C(C)C)c(O)c(/C=N\O)cc12 | 18.2 | 3.67 | – | Non-toxic | – | – | – | – |
| COc1c(C=O)cc2c3ccccc3n(C)c2c1CC=C(C)C | 147 | 62.5 | 149 | – | – | – | – | – |
| COc1ccc2c(c1)[nH]c1c3c(c(C=O)cc12)OC(C)(C)CC3 | – | – | – | Non-toxic | – | – | inactive | inactive |
| COc1cc2[nH]c3c(CC(Br)C(C)(C)O)c(O)c(C=O)cc3c2cc1Br (stereo not given) | 36.3 | 0.66 | 12.5 | – | – | 4 | – | – |
